{"source": "patent US11351236B2", "about": "“BCMA chimeric antigen receptors” (2seventy bio, Inc., priority 2014, dated 2022)", "system": "human multiple myeloma (RPMI-8226) tumors", "test": "Sub-cutaneous human multiple myeloma (RPMI-8226) tumor model in NSG mice", "assay_type": "in vivo, mouse", "conditions": "~100 mm^3 RPMI-8226 tumors, 10^7 CAR T cells or Bortezomib, two independent experiments", "protocol": "Hyperactivation and increased apoptosis could negatively impact CAR T cell persistence in patients and ultimately clinical efficacy. The anti-tumor function of anti-BCMA02 CAR T cells and anti-BCMA10 CAR T cells was examined in a mouse tumor model. NOD scid gamma (NSG) mice with ˜100 mm^3 experimental sub-cutaneous human multiple myeloma (RPMI-8226) tumors were treated with 10^7 anti-BCMA02 CAR T cells, 10^7 anti-BCMA10 CAR T cells, or Bortezomib (velcade). RPMI-8226 growth was monitored with calipers.", "data": [{"smiles": "CC(C)C[C@H](NC(=O)[C@H](Cc1ccccc1)NC(=O)c1cnccn1)B(O)O", "note": "[Bortezomib]", "values": [{"measurement": "tumor growth (calipers)", "value": "controlled tumor growth"}]}]}
